# The source made the active and inactive calls. The rule behind the calls is not given here.
# What was measured:
# [1] = test system: MGC-803; assay: Induction of apoptosis in human MGC-803 cells assessed as early apoptotic cells at 0.5 uM measured after 48 hrs by Annexin V-EGFP and PI staining based flow cytometry analysis (reference value: 0.66%); format: functional
# [2] = test system: SMMC-7721; assay: Antiproliferative activity against human SMMC-7721 cells assessed as inhibition of cell growth by MTT assay
# [3] = test system: H9c2; assay: Cardioprotective activity against H2O2 induced myocardial damage in rat H9c2 cells harbouring Ad.HDAC6 assessed as increase in cell viability at 8 uM by MTT assay; format: functional, cell-based
# [4] = test system: MGC-803; assay: Induction of apoptosis in human MGC-803 cells assessed as necrotic cells at 2 uM measured after 48 hrs by Annexin V-EGFP and PI staining based flow cytometry analysis (reference value: 3.90%); format: functional
# [5] = Toxicity in C57BL/6 mouse assessed as lesions in myocardial tissue at 25 to 50 mg/kg, ip by H and E staining based analysis; format: organism-based; settings: in vivo, dose 25-50 mg/kg
# [6] = test system: Mus musculus; assay: Cardioprotective activity against myocardial ischemia/reperfusion induced C57BL/6J mouse model assessed as alleviation of extensive myocardial necrosis at 10 mg/kg by H and E staining based analysis; format: functional, organism-based
# [7] = test system: H9c2; assay: Cardioprotective activity in H2O2 induced myocardial injury in rat H9c2 cells assessed as effect on LC3 level at upto 8 uM by q-PCR analysis; format: functional, cell-based
# [8] = test system: H9c2; assay: Cardioprotective activity in H2O2 induced myocardial injury in rat H9c2 cells assessed as effect on P62 level at upto 8 uM by q-PCR analysis; format: functional, cell-based
# [9] = test system: MGC-803; assay: Induction of apoptosis in human MGC-803 cells assessed as viable cells at 1 uM measured after 48 hrs by Annexin V-EGFP and PI staining based flow cytometry analysis (reference value: 92.3%); format: functional; settings: read-out: Activity
# [10] = Toxicity in C57BL/6 mouse assessed as effect on body weight at 25 to 50 mg/kg, ip measured after 21 days; format: organism-based; settings: in vivo, 504 h, dose 25-50 mg/kg, time 21 day
# [11] = Cmax in male Sprague-Dawley rat at 7 mg/kg,po measured upto 8 hrs by UPLC-MS/MS analysis; format: ADME, organism-based; settings: in vivo
# [12] = AUC (0 to infinity) in male Sprague-Dawley rat at 7 mg/kg,iv measured upto 8 hrs by UPLC-MS/MS analysis; format: ADME, organism-based; settings: in vivo
# [13] = test system: H9c2; assay: Cardioprotective activity in H2O2 induced myocardial injury in rat H9c2 cells assessed as decrease in cell contraction at 2 to 8 uM; format: functional, cell-based; settings: dose 2-8 µM
# [14] = test system: H9c2; assay: Cardioprotective activity in H2O2 induced myocardial injury in rat H9c2 cells assessed as effect on HO-1 level at upto 8 uM by q-PCR analysis; format: functional, cell-based
# [15] = test system: H9c2; assay: Cardioprotective activity in H2O2 induced myocardial injury in rat H9c2 cells assessed as decrease in cell death at 2 to 8 uM; format: functional, cell-based; settings: dose 2-8 µM
# [16] = test system: MGC-803; assay: Induction of apoptosis in human MGC-803 cells assessed as late apoptotic cells at 1 uM measured after 48 hrs by Annexin V-EGFP and PI staining based flow cytometry analysis (reference value: 3.16%); format: functional
# [17] = test system: H9c2; assay: Cardioprotective activity against H2O2 induced myocardial damage in rat H9c2 cells harbouring Ad.HDAC6 assessed as reversal of IL-18 expression at 8 uM; format: functional, cell-based
# [18] = test system: MGC-803; assay: Antitumor activity against human MGC-803 cells xenografted in […] mouse model assessed as suppression of tumor mass at 25 to 50 mg/kg, ip measured upto 21 days with continuous administration for 5 days followed by two days break; format: functional, organism-based; settings: dose 25-50 mg/kg, time <= 21.0 day
# [19] = test system: H9c2; assay: Cardioprotective activity in H2O2 induced myocardial injury in rat H9c2 cells assessed as downregulation of IL-1 beta mRNA level at upto 8 uM by q-PCR analysis; format: functional, cell-based
# [20] = Cmax in male Sprague-Dawley rat at 7 mg/kg,iv measured upto 8 hrs by UPLC-MS/MS analysis; format: ADME, organism-based; settings: in vivo
# [21] = test system: Mus musculus; assay: Cardioprotective activity against myocardial ischemia/reperfusion induced C57BL/6J mouse model assessed as effect on infarct size of mouse heart at 2.5 to 10 mg/kg by TTC staining based analysis; format: functional, organism-based; settings: dose 2.5-10 mg/kg
# [22] = test system: H9c2; assay: Cardioprotective activity against H2O2 induced myocardial damage in rat H9c2 cells harbouring Ad.HDAC6 assessed as reversal of IL-1 beta expression at 8 uM; format: functional, cell-based
# [23] = test system: H9c2; assay: Cardioprotective activity in H2O2 induced myocardial injury in rat H9c2 cells assessed as downregulation of IL-18 mRNA level at upto 8 uM by q-PCR analysis; format: functional, cell-based
# [24] = Tmax in male Sprague-Dawley rat at 7 mg/kg,po measured upto 8 hrs by UPLC-MS/MS analysis; format: ADME, organism-based; settings: in vivo
# [25] = test system: BGC-823; assay: Antiproliferative activity against human BGC-823 cells assessed as inhibition of cell growth by MTT assay
# [26] = test system: TE-1; assay: Antiproliferative activity against human TE-1 cells assessed as inhibition of cell growth by MTT assay
# [27] = test system: H9c2; assay: Cardioprotective activity against H2O2 induced myocardial damage in rat H9c2 cells harbouring Ad.GFP assessed as increase in cell viability at 8 uM by MTT assay; format: functional, cell-based
# [28] = test system: HCT-116; assay: Antiproliferative activity against human HCT-116 cells assessed as inhibition of cell growth by MTT assay
# [29] = test system: MKN-45; assay: Antiproliferative activity against human MKN-45 cells assessed as inhibition of cell growth by MTT assay
# [30] = test system: Mus musculus; assay: Cardioprotective activity against myocardial ischemia/reperfusion induced C57BL/6J mouse model assessed as reduction in myocardial infarction area at 2.5 mg/kg (reference value: 72.19%); format: functional; set-up: scale not given: the % may be the effect or the level left
# [31] = test system: MGC-803; assay: Induction of apoptosis in human MGC-803 cells assessed as early apoptotic cells at 1 uM measured after 48 hrs by Annexin V-EGFP and PI staining based flow cytometry analysis (reference value: 0.66%); format: functional
# [32] = test system: H9c2; assay: Cardioprotective activity against H2O2 induced myocardial damage in rat H9c2 cells harbouring Ad.GFP assessed as decrease in LDH leakage rate at 8 uM by absorbance based analysis; format: functional, cell-based
# [33] = test system: PANC-1; assay: Antiproliferative activity against human PANC-1 cells assessed as inhibition of cell growth by MTT assay
# [34] = test system: MGC-803; assay: Induction of apoptosis in human MGC-803 cells assessed as late apoptotic cells at 2 uM measured after 48 hrs by Annexin V-EGFP and PI staining based flow cytometry analysis (reference value: 3.16%); format: functional
# [35] = test system: MGC-803; assay: Antitumor activity against human MGC-803 cells xenografted in […] mouse model assessed as suppression of tumor volume at 25 to 50 mg/kg, ip measured upto 21 days with continuous administration for 5 days followed by two days break; format: functional, organism-based; settings: dose 25-50 mg/kg, time <= 21.0 day
# [36] = AUClast in male Sprague-Dawley rat at 7 mg/kg,iv measured upto 8 hrs by UPLC-MS/MS analysis; format: ADME, organism-based; settings: in vivo
# [37] = test system: H9c2; assay: Cardioprotective activity in H2O2 induced myocardial injury in rat H9c2 cells assessed as effect on beclin1 level at upto 8 uM by q-PCR analysis; format: functional, cell-based
# [38] = test system: H9c2; assay: Cardioprotective activity against H2O2 induced myocardial damage in rat H9c2 cells harbouring Ad.HDAC6 assessed as decrease in LDH leakage rate at 8 uM by absorbance based analysis; format: functional, cell-based
smiles,measurement,setting,value
O=C(NO)c1ccc(CNC(=O)c2cc(-c3ccc(F)cc3)cn3ccnc23)cc1,Activity,[1],0.52%
same,IC50,[2],2.74 µM
same,Activity,[3],Active
same,Activity,[4],4.83%
same,Activity,[5],Non-Toxic
same,Activity,[6],Active
same,Activity,[7],inactive
same,Activity,[8],inactive
same,viability at 1 µM,[9],77.2%
same,Activity,[10],Non-Toxic
same,Cmax,[11],27.5 ng/mL
same,AUC(0-inf),[12],868 ng·h/mL
same,Activity,[13],Active
same,Activity,[14],inactive
same,Activity,[15],Active
same,Activity,[16],17.6%
same,Activity,[17],Active
same,Activity,[18],Active
same,Activity,[19],Active
same,Cmax,[20],807 ng/mL
same,Activity,[21],inactive
same,Activity,[22],Active
same,Activity,[23],Active
same,Tmax,[24],1 h
same,IC50,[25],2.25 µM
same,IC50,[26],4.5 µM
same,Activity,[27],Active
same,IC50,[28],> 10 µM
same,IC50,[29],7.43 µM
same,Activity,[30],59.66%
same,Activity,[31],0.48%
same,Activity,[32],Active
same,IC50,[33],3.79 µM
same,Activity,[34],24.2%
same,Activity,[35],Active
same,AUC(0-t) at 8 h,[36],740 ng·h/mL
same,Activity,[37],inactive
same,Activity,[38],Active

# Reference: ChEMBL document CHEMBL5550215, “Discovery of Novel Imidazo[1,2-a]pyridine-Based HDAC6 Inhibitors as an Anticarcinogen with a Cardioprotective Effect” (J Med Chem, 2024)
